Assay results reported in article PMC8163506, “A novel ATP dependent dimethylsulfoniopropionate lyase in bacteria that releases dimethyl sulfide and acryloyl-CoA” (eLife, 2021).

Biological target: T1, DddX (Psychrobacter sp., UniProt Z9QGV9JXN0)
T1 construct: full length (2247 bp gene), pET-22b, C-terminal His tag, E. coli BL21(DE3); dimer in solution
T1 sequence (Z9QGV9JXN0 1-748): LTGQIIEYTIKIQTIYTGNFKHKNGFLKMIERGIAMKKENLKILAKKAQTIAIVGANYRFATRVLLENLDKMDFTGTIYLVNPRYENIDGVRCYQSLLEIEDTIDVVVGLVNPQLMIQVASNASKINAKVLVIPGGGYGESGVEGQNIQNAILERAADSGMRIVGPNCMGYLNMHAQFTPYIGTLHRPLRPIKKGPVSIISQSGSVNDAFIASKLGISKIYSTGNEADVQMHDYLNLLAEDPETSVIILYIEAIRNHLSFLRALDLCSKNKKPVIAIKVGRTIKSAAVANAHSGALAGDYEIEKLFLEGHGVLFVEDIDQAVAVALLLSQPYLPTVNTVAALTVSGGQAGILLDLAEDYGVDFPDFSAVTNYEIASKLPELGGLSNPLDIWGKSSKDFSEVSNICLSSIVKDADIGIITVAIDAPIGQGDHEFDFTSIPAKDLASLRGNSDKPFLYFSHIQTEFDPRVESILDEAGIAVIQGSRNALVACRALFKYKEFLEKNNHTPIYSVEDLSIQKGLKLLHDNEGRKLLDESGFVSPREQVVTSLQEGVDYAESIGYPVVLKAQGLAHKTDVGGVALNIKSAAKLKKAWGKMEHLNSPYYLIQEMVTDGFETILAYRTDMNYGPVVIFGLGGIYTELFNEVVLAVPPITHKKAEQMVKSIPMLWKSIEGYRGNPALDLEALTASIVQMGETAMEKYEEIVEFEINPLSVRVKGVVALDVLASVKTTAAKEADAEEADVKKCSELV
Experiment: X-ray crystal structure of complex
Format: binding
Conditions: 1 mM ATP incubated with protein; ATP-grasp domain; crystals at pH 5.5, 18 °C

With Nc1ncnc2c1ncn2[C@@H]1O[C@H](COP(=O)(O)OP(=O)(O)OP(=O)(O)O)[C@@H](O)[C@H]1O [ATP] the “X-ray crystal structure of complex” value was “we solved the crystal structure of DddX in complex with ATP”.
